Data reported in patent publication US5140009A (Tap Pharmaceuticals, Inc., priority 1990, dated 1992).
Read-outs that look alike come from different tables or passages of the source. Numbered stars: 1 amine (or outer) side, 2 acyl side, 3 side chain; on linkers, the order of the positions; unused ones are H or OH. Square brackets hold non-standard residues; d marks the D form. Peptide text beside a SMILES is read from it. * marks the point of attachment. Propanoyl(3-(4-F-phenyl)) = O=C(CCc1ccc(F)cc1)*; Propanoyl(3-(4-Cl-Ph)) = O=C(CCc1ccc(Cl)cc1)*; Phenylacetyl(4-Cl) = O=C(Cc1ccc(Cl)cc1)*; dPhe(4-Cl) = N[C@H](Cc1ccc(Cl)cc1)C(=O)O; X10 = O=C([C@@H](Cc1cncs1)N[*:1])[*:2]; 2Nal = N[C@@H](Cc1ccc2ccccc2c1)C(=O)O; d1Nal = N[C@H](Cc1cccc2ccccc12)C(=O)O; Lys(iPr) = CC(C)NCCCC[C@H](N)C(=O)O; NMeY = CN[C@@H](Cc1ccc(O)cc1)C(=O)O; d2Thi = N[C@H](Cc1cccs1)C(=O)O; Morpholide = C1CN(*)CCO1; CO = O=C([*:1])[*:2]; Bn = c1ccc(C*)cc1

Target: T1, LHRH receptors (Rattus norvegicus, UniProt P30969)
T1 construct: Pituitary membranes containing LHRH receptors are prepared in batches from quick-frozen rat pituitaries; tissue Hilltop Labs; host or cells: rat pituitary membranes
T1 sequence (P30969 1-327): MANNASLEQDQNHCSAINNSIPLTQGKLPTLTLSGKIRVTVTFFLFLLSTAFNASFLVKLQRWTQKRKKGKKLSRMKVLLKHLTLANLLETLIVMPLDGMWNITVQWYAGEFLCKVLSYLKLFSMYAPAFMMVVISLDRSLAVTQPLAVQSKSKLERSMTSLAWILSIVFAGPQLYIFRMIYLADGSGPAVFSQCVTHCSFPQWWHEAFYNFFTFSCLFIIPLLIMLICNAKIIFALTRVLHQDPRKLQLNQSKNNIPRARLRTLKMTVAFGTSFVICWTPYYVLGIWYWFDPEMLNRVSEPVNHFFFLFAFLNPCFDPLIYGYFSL
Test: Receptor Binding (radioligand receptor binding assay)
Conditions: rat pituitary membranes, 2 hours at 4° C.

[1] = table 4, radioligand 50 pM, read-out: Receptor Binding pkI (converted)
[2] = table 3, radioiodinated [D-Leu^6 -des Gly^10 ]-LHRH ethyl amide 50 pM, read-out: Receptor Binding pkI (converted)

| SMILES | Ki [1] [nM] | Ki [2] [nM] | other results |
| --- | --- | --- | --- |
| CC(C)C[C@H](NC(=O)[C@@H](CCCCN)NC(=O)[C@H](Cc1ccc(O)cc1)NC(=O)[C@H](COCc1ccccc1)NC(=O)[C@@H](Cc1cccs1)NC(=O)CCc1ccc(Cl)cc1)C(=O)N[C@@H](CCCNC(=N)N)C(=O)N1CCC[C@H]1C(=O)N[C@H](C)C(N)=O [Compound 167, (3-10)[N-(3-(4-Chlorophenyl)propionyl)-D-Thia^3 -Ser(O-Bzl)^4 -D-Lys^6 -D-Ala^10]LHRH] ({Propanoyl(3-(4-Cl-Ph))}-[d2Thi]S(Bn)Y[dK]LRP[dA]-NH2) | – | – | Ki (Receptor Binding pkI, table 4, radioligand 50 pM): 0.457 nM |
| CCNC(=O)[C@@H]1CCCN1C(=O)[C@H](CCCNC(=N)N)NC(=O)[C@H](CC(C)C)NC(=O)[C@@H](Cc1ccc(O)cc1)NC(=O)[C@H](Cc1ccc(O)cc1)NC(=O)[C@H](CO)NC(=O)[C@@H](Cc1ccc(O)cc1)NC(=O)CCc1ccc(F)cc1 [Compound 93, (3-9)[N-(3-(4-Fluorophenyl)propionyl) -D-Tyr^3,6 -Pro^9 NHEt]LHRH] ({Propanoyl(3-(4-F-phenyl))}-[dY]SY[dY]LRP-NHEt) | – | 0.0158 | – |
| CCNC(=O)[C@@H]1CCCN1C(=O)[C@H](CCCNC(=N)N)NC(=O)[C@H](CC(C)C)NC(=O)[C@@H](Cc1c[nH]c2ccccc12)NC(=O)[C@H](Cc1ccc(O)cc1)NC(=O)[C@H](CO)NC(=O)[C@H](Cc1ccc2ccccc2c1)NC(C)=O [Compound 84, (3-9)[N-Ac-2-Nal^3 -D-Trp^6 -Pro^9 NHEt]LHRH] (Ac-[2Nal]SY[dW]LRP-NHEt) | – | 1.41 | – |
| CCNC(=O)[C@@H]1CCCN1C(=O)[C@H](CCCNC(=N)N)NC(=O)[C@H](CC(C)C)NC(=O)[C@@H](CCCNC(=N)N)NC(=O)[C@H](Cc1ccc(O)cc1)NC(=O)[C@H](CO)NC(=O)[C@H](Cc1c[nH]c2ccccc12)NC(=O)[C@H](Cc1ccccc1)NC(=O)N1CCOCC1 [Compound 60, N-(alpha)-Morpholinocarbonyl-Phe-Trp-Ser-Tyr-D-Arg-Leu-Arg-ProNHEt] ({Morpholide-CO}-FWSY[dR]LRP-NHEt) | – | 5.25 | – |
| CCNC(=O)[C@@H]1CCCN1C(=O)[C@H](CCCNC(=N)N)NC(=O)[C@H](CC(C)C)NC(=O)[C@@H](Cc1c[nH]c2ccccc12)NC(=O)[C@H](Cc1ccc(O)cc1)NC(=O)[C@H](CO)NC(=O)Cc1ccc(Cl)cc1 [Compound 75, (4-9)[N-(3-(4-Chlorophenyl)acetyl) -Ser^4 -D-Trp^6 -Pro^9 NHEt]LHRH] ({Phenylacetyl(4-Cl)}-SY[dW]LRP-NHEt) | – | 7.08 | – |

Now from value to compound, other results behind:

| Ki [1] [nM] | Ki [2] [nM] | SMILES | other results |
| --- | --- | --- | --- |
| 0.0891 | – | CCNC(=O)[C@@H]1CCCN1C(=O)[C@H](CCCNC(=N)N)NC(=O)[C@H](CC(C)C)NC(=O)[C@@H](Cc1c[nH]c2ccccc12)NC(=O)[C@H](Cc1ccc(O)cc1)NC(=O)[C@H](CO)NC(=O)[C@@H](Cc1ccc(Cl)cc1)NC(=O)CCc1ccc(F)cc1 [Compound 140, (3-9) [N-(3-(4-Fluorophenyl)propionyl) -D-4-Cl-Phe^3 -D-Trp^6 -Pro^9 NHEt]LHRH] ({Propanoyl(3-(4-F-phenyl))}-[dPhe(4-Cl)]SY[dW]LRP-NHEt) | – |
| 0.0214 | – | CC(C)C[C@H](NC(=O)[C@@H](Cc1cncs1)NC(=O)[C@H](Cc1ccc(O)cc1)N(C)C(=O)[C@H](CO)NC(=O)[C@@H](Cc1cccc2ccccc12)NC(=O)CCc1ccc(F)cc1)C(=O)N[C@@H](CCCCNC(C)C)C(=O)N1CCC[C@H]1C(=O)N[C@H](C)C(N)=O [Compound 204, (3-10)[N-(3-(4-Fluorophenyl)propionyl)-D-1-Nal^3 -NMeTyr^5 -D-Thiaz6-Lys^8 (N-epsilon-isopropyl)-D-Ala^10]LHRH] ({Propanoyl(3-(4-F-phenyl))}-[d1Nal]S[NMeY][X10]L[Lys(iPr)]P[dA]-NH2) | – |
| 0.00575 | – | CC(C)C[C@H](NC(=O)[C@@H](CCCCN)NC(=O)[C@H](Cc1ccc(O)cc1)N(C)C(=O)[C@H](CO)NC(=O)[C@@H](Cc1c[nH]c2ccccc12)NC(=O)CCc1ccc(F)cc1)C(=O)N[C@@H](CCCNC(=N)N)C(=O)N1CCC[C@H]1C(=O)N[C@H](C)C(N)=O [Compound 173, (3-10)[N-(3-(4-Fluorophenyl)propionyl)-D-Trp^3 -NMeTyr^5 -D-Lys^6 -D-Ala^10]LHRH] ({Propanoyl(3-(4-F-phenyl))}-[dW]S[NMeY][dK]LRP[dA]-NH2) | – |
